From publication PMC9126592, “sp^2-Iminosugars targeting human lysosomal β-hexosaminidase as pharmacological chaperone candidates for late-onset Tay-Sachs disease” (Journal of Enzyme Inhibition and Medicinal Chemistry, 2022) come the findings set out here.

As a reminder, the IC50 is the midpoint of a concentration-inhibition curve. A word on the Ki: it is the dissociation constant of the complex between target and ligand, obtained from inhibition or displacement.

One assay addresses T1, recombinant human O-GlcNAcase (hOGA) (Homo sapiens, UniProt O60502).
T1 construct: the N-terminal region of hOGA, comprising amino acids 11–396; the C-terminal region, comprising amino acids 535–715; His6 (N); His6 followed by 3C-protease cleavage site (N); made in house; host or cells: E. coli Bl21(DE3)-Gold
T1 sequence (O60502 11-396): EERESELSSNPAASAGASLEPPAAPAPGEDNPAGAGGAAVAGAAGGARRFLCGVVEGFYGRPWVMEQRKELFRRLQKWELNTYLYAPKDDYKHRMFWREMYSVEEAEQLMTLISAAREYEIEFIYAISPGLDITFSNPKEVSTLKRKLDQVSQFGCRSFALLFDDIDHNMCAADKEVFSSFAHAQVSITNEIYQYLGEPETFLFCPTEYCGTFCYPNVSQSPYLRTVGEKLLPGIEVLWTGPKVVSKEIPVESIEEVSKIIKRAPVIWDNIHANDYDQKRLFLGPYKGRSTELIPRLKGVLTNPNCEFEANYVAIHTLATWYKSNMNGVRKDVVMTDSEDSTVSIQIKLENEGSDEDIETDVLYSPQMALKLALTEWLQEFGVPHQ
T1 sequence (O60502 535-715): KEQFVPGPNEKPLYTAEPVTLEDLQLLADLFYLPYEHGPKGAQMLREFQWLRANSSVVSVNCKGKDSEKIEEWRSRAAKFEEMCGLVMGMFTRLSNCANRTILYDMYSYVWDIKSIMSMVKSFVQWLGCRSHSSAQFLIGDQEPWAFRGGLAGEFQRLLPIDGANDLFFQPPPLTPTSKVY
As to the kind of experiment: Inhibition of recombinant human O-GlcNAcase (resorufin N-acetyl-β-D-glucosaminide). Type of assay: biochemical. The settings on record: read-out: IC50 against OGA. From the text:
The gene of the longest isoform of hOGA (hOGA-L; Uniprot Accession number: O60502) was synthesised in a codon-optimised form for recombinant expression in Escherichia coli. The successful expression construct encoded the N-terminal region of hOGA, comprising amino acids 11–396, and the C-terminal region, comprising amino acids 535–715. The N-terminal construct was cloned in the vector pACYC-Duet (Millipore) using the sequence and ligation-independent cloning method in frame with an N-terminal His6 tag. The C-terminal construct was cloned into the vector pET-YSBLIC3C27 with an N-terminal His6 tag followed by a 3 C-protease cleavage site using the same method. The nucleotide sequences of all made constructs were confirmed by sequencing. Both vectors were simultaneously transformed into E. coli Bl21(DE3)-Gold (Agilent) for subsequent protein expression. Cells were grown in 2 L TB-medium to an OD600 of ∼1.0 and protein synthesis was then induced by adding IPTG to a final concentration of 0.1 mM. Protein expression was carried out at 16 °C with an induction time of 20 h. The cells were harvested by centrifugation at 4,500 × g for 20 min, flash frozen and stored at −20 °C until required. For purification of the hOGA complex, cells were resuspended in 50 mM HEPES pH 7.0, 750 mM NaCl, 20 mM imidazole, and 0.5 mM DTT (resuspension buffer). Cells were lysed using a French Press at 25 kPsi. The lysate was cleared by centrifugation at 50,000 g for 1 h, and the supernatant was passed through a 10 ml HisTrap FF column (GE Healthcare) pre-equilibrated with resuspension buffer. The bound hOGA was purified by gradient elution over 10 column volumes using 0% to 50% of elution buffer (50 mM HEPES pH 7.0, 750 mM NaCl, 500 mM imidazole and 0.5 mM DTT). hOGA-containing fractions were combined, concentrated by ultrafiltration using Vivaspin columns (Sartorius) with a molecular weight cut-off (MWCO) of 30 kDa, and applied to a Superdex S200 column (GE Healthcare) pre-equilibrated with size-exclusion buffer (10 mM HEPES pH 7.0, 250 mM NaCl, 1 mM DTT). Fractions corresponding to the dimeric form of hOGA were combined and concentrated to 20 mg/mL by ultrafiltration with a Vivaspin (MWCO: 30 kDa) column, flash frozen using liquid nitrogen, and stored at −80 °C until required.
Inhibition assays were run at 0.2 nM [hOGA] in the same buffer, in the presence or absence of various concentrations of inhibitors and at a fixed substrate concentration of 25 µM and 1% DMSO. First, inhibitor was serially diluted to the desired range of concentrations in 2% DMSO buffer. Next, 50 µL of inhibitor solutions at various concentrations in 2% DMSO Buffer was added to 50 μl of 0.8 nM enzyme and allowed to incubate at 25 °C for 5 min. 100 µL of 50 µM and 1% DMSO substrate was then added and reaction mixture was immediately mixed and aliquoted in 45 µL triplicates to a CORNING 384 well black plate. Fluorescence signal was measured continuously for 20 min at 37 °C in a BioTek Neo 2 Plate reader set at excitation and emission wavelengths of 572 and 610 nm, respectively. Max reaction rates for all inhibitor concentrations were calculated within Gen5 BioTek reader software. % Activity was subsequently calculated for each inhibitor concentration against the max reaction rate of uninhibited hOGA.
Turning to `CC(=O)NC1CN2C(=NCc3ccccc3)SCC2C(O)C1O` (stereo not drawn) [Compound 7, 2-Acetamido-1,2-dideoxy-5-N,6-S-(N’-benzyliminomethylidene)-6-thiogalactonojirimycin], the IC50 came to 25 µM.

The same assay, now with this note: recombinant human O-GlcNAcase; read-out: Ki OGA.
On to `CCCCNC(=S)N1C[C@H](NC(C)=O)[C@@H](O)[C@@H](O)[C@H]1CO` [Compound 1, 2-Acetamido-1,2-dideoxy-5-N-(N’-butylthiocarbamoyl)galactonojirimycin], for which the Ki was above 100 µM. On to `CCCCCCCCNC(=S)N1C[C@H](NC(C)=O)[C@@H](O)[C@@H](O)[C@H]1CO` [Compound 2, 2-Acetamido-1,2-dideoxy-5-N-(N’-octylthiocarbamoyl)galactonojirimycin], for which the Ki is above 100 µM.

As to `CC(=O)N[C@H]1CN(C(=S)NCc2ccccc2)[C@H](CO)[C@H](O)[C@@H]1O` [Compound 3, 2-Acetamido-1,2-dideoxy-5-N-(N’-benzylthiocarbamoyl)galactonojirimycin], the Ki is above 100 µM. The same measure, in the same setting: as for `CC(=O)N[C@H]1CN(C(=S)Nc2ccccc2)[C@H](CO)[C@H](O)[C@@H]1O` [Compound 4, 2-Acetamido-1,2-dideoxy-5-N-(N’-phenylthiocarbamoyl)galactonojirimycin], the figure is above 100 µM. As to `CCCCN=C1SCC2C(O)C(O)C(NC(C)=O)CN12` (stereo not drawn) [Compound 5, 2-Acetamido-1,2-dideoxy-5-N,6-S-(N’-butyliminomethylidene)-6-thiogalactonojirimycin], the Ki was above 100 µM. Consider `CCCCCCCCN=C1SCC2C(O)C(O)C(NC(C)=O)CN12` (stereo not drawn) [Compound 6, 2-Acetamido-1,2-dideoxy-5-N,6-S-(N’-octyliminomethylidene)-6-thiogalactonojirimycin], for which the Ki was above 100 µM. `CC(=O)NC1CN2C(=NCc3ccccc3)SCC2C(O)C1O` (stereo not drawn) [Compound 7, 2-Acetamido-1,2-dideoxy-5-N,6-S-(N’-benzyliminomethylidene)-6-thiogalactonojirimycin]: the Ki stood at 25 µM. Same read-out and setting: as for `CC(=O)NC1CN2C(=Nc3ccccc3)SCC2C(O)C1O` (stereo not drawn) [Compound 8, 2-Acetamido-1,2-dideoxy-5-N,6-S-(N’-phenyliminomethylidene)-6-thiogalactonojirimycin], the figure is above 100 µM.
